Our source for the Solubility in water and concentration values is US20200061035A1 (Heron Therapeutics, Inc., priority 2016, published 2020).

For data set [1] the following is noted: cited from earlier work.
A short description of data set [2]: Pharmacokinetic analysis of granisetron and olanzapine formulation in canines (plasma concentration by LC/MS/MS). In kind it is in vivo. The conditions noted are these: both sexes, dog, dogs, same formulation, approx. 5 mg granisetron, read-out: Average Plasma Concentrations of Granisetron. How it is done:
Plasma samples were taken from each dog at the following time points: 0, 0.5, 1, 3, 6, 8, 24, 48, 72, 96, 120 hours, and frozen.

Consider `Cc1cc2c(s1)Nc1ccccc1N=C2N1CCN(C)CC1` [Olanzapine, 2-methyl-10-(4-methyl-1-piperazinyl)-4H-thieno[2,3-b][1,5]benzodiazepine], for which the Solubility in water result in data set [1] is reported as “practically insoluble”.
For the compound `CN1C2CCCC1CC(NC(=O)c1nn(C)c3ccccc13)C2` (centres unmarked) [Granisetron, granisetron], the concentration at 0.5 h in data set [2] (0.5 hrs) was 11.7 ng/mL. In data set [2] (1 hr), the concentration at 1 h was determined as 14.3 ng/mL. In addition, the concentration at 3 h in data set [2] (3 hrs) amounted to 14.2 ng/mL. Also, the concentration at 6 h in data set [2] (6 hrs) came out at 10.7 ng/mL. Also, the concentration at 8 h in data set [2] (8 hrs) amounted to 8.02 ng/mL. The concentration at 24 h in data set [2] (24 hrs) was 6.82 ng/mL. In data set [2] (48 hrs), the concentration at 48 h is 3.27 ng/mL. The concentration at 72 h in data set [2] (72 hrs) came out at 1.54 ng/mL. Moreover, the concentration at 96 h in data set [2] (96 hrs) came out at 0.95 ng/mL. Further, in data set [2] (120 hrs), the concentration at 120 h amounted to 0.4 ng/mL.
